# According to patent US11759480B2, “Compositions and methods for CAR T cell therapy” (ENDOCYTE, INC., priority 2017, dated 2023):
# Like-named read-outs stand apart in the source and are kept apart here.
# Experiments:
# MDA-MB-231 [1] = type: in vivo; conditions: for mice died (or euthanized due to sCRS): Week 2
# Experimental: To evaluate whether pre-painting tumors with EC17 can reduce the therapy-related toxicity (e.g. sCRS), NSG mice were implanted with MDA-MB-231. Since larger tumor burden is correlated with more severe CRS, the treatment was started when tumor size reached […]. Mice were divided into two groups and predosed with 500 nmol/kg EC17 at different time points before CAR-T administration (FIGS. 26A and 26B). Group #1 was pre-dosed 4 hours before the administration of 8 million CAR-T cells, while group #2 was pre-dosed 24 hours before the administration of 8 million CAR-T cells. 500 nmol/kg EC17 was then i.v. dosed once per week (at days 1, 8, 15 etc.) post CAR-T administration (FIGS. 26D and 26E). […] No difference in anti-tumor activity was found in these two groups, and all surviving mice became tumor free eventually. Thus, toxicity was less in mice with 24 hour pre-painting than in mice with 4 hour pre-painting with EC17.
# KB = test: FITC-CAR-T/EC17 therapy, KB model (Example 28); type: in vivo, NSG mice
# Experimental: (§1) To test whether FITC-CAR-T/EC17 therapy has anti-tumor activity in various FR+ tumor models, NSG mice were subcutaneously implanted with MDA-MB-231 (triple negative breast cancer cell line), OV90 (human ovarian cancer cell line), KB (human cervical adenocarcinoma cell line), SKOV-3 (human ovarian carcinoma cell line), or HEK293-FRa (HEK293 stably-transfected with human FRa). When tumor size reached […], one dose of EC17 at 500 nmol/kg of body weight was injected by tail vein followed with administering of 5 million FITC-CAR-T cells 4 hours later. 500 nmol/kg EC17 was dosed once every week after the initial EC17/CAR-T administration (about day 7), tumor size and body weights of mice were monitored three times per week. The EC17 dosing days were labeled as green dashed vertical lines in the graph. […] EC17 dose-dependent temporary body weight loss was also observed in all tumor bearing mice, indicating the activation of CAR-Ts is EC17-dependent in these mice.
# HOS-FRα = test: EC17-controlled anti-FITC CAR T-cell therapy in osteosarcoma model (Example 47); type: in vivo, NSG mice
# Text: HOS-FRα cells were implanted subcutaneously with 5×10^5 per animal in 6 animals.
# […] One animal in the EC17-treated group received two more doses of EC17 at 50 and 100 nmol/kg on Days 40 and 42. All EC17 doses were given towards the end of the day (˜3-4 PM) to allow cytokine release syndrome (CRS) to develop overnight. Sodium fluorescein rescue was done as needed at 0.6 μmol/kg. Only the last EC17-dosed animal received sodium fluorescein on day 47.
# OV90 = test: EC17 dependent anti-tumor activity, OV90 xenograft (Example 26); type: in vivo, NSG mice; conditions: 500 nmoles/kg once per week, 5 million CAR-T
# Text: (§2) Immunodeficient NSG mice (Jackson Laboratory) were used to show the efficacy of CAR T cell anti-tumor activity with a single dose of EC17 per week. Two folate receptor expressing cancer cell lines were used to establish subcutaneous solid tumor xenografts: MDA-MB-231 has high folate receptor expression, while OV90 has low folate receptor expression. When tumor volume of around 100-250 mm^3 was reached, mice were divided into two groups. Mice in the “EC17 500 nmol/kg” group (nmol/kg is equivalent to nmoles/kg as used in this patent application for the bridge) were injected with 500 nmoles/kg of body weight of EC17, while mice in the “no EC17” group were not injected with EC17. Four hours later, mice in both groups were administered 5 million anti-FITC CAR-T cells. After initial administration of EC17 and CAR-T cells, only mice in the “EC17 500 nmol/kg” group were injected (i.v.) with 500 nmoles/kg of EC17 once per week. Anti-tumor efficacy was monitored by tumor volume.
# MDA-MB-231 [2] = test: EC17 dependent anti-tumor activity, MDA-MB-231 xenograft (Example 26); type: in vivo, NSG mice; conditions: 500 nmoles/kg once per week, 5 million CAR-T
# Text: as §2
# HEK293-FRa = test: FITC-CAR-T/EC17 therapy, HEK293-FRa model (Example 28); type: in vivo, NSG mice; conditions: 500 nmol/kg weekly, 5 million FITC-CAR-T
# Experimental: as §1
# [3] = system: anti-fluorescein scFv on CAR T cells; test: Competitive binding assay against FITC-Alexa647 on CAR T cells; conditions: 1 μM competing ligand versus FITC-Alexa647 10 nM
# Experimental: To examine the ability of bridge molecules to bind anti-fluorescein scFv on CAR T cells, a competitive binding assay was developed. Measurement of the fluorescein signal from CAR T cell bound bridges could not be used due to the overlap of its fluorescence with that of the GFP expressing CAR T cells. For this purpose, FITC-Alexa647 (10 nM) was allowed to bind anti-fluorescein CAR T cells in the absence or presence of excess (1 μM) competing ligand (i.e. FITC-folate, FITC-DUPA, FITC-CA9) for 1 h at room temperature. After incubation, anti-fluorescein CAR T cells were washed 3× with PBS to remove unbounded FITC-Alexa647, and the washed cells were analyzed for Alexa647 fluorescence by flow cytometry.
# Fluorescein-folate (FITC-folate) and fluorescein-PSMA (FITC-DUPA) were synthesized as previously described. To examine the ability of these bridge molecules to bind anti-fluorescein scFv on CAR T cells, a competitive binding assay had to be developed, because measurement of the fluorescein signal from CAR T cell bound bridge could not be used due to the overlap of its fluorescence with that of the GFP expressing CAR T cells. For this purpose, FITC-Alexa647 (10 nM) was allowed to bind anti-fluorescein CAR T cells in the absence or presence of excess (1 μM) competing ligand (i.e. FITC-folate) for 1 h at room temperature. After incubation, anti-fluorescein CAR T cells were washed 3× with PBS to remove unbounded FITC-Alexa647, and the washed cells were analyzed for Alexa647 fluorescence by flow cytometry. For analysis of FITC-folate to binding to folate receptor, FR positive KB cells were incubated with FITC-folate (100 nM) in the absence or presence of excess (10 μM) free folate (i.e. as a competitive ligand). After washing samples with PBS (3 times), samples were analyzed by flow cytometry for fluorescein-folate binding.
smiles,measurement,setting,value
"Nc1nc2ncc(CNc3ccc(C(=O)NC(CCC(=O)NCCNC(=S)Nc4ccc(-c5c6ccc(=O)cc-6oc6cc(O)ccc56)c(C(=O)O)c4)C(=O)O)cc3)nc2c(=O)[nH]1 (centres unmarked) [EC17, FITC-Folate]",mice survived over 5 weeks,MDA-MB-231 [1]; 4-hour pre-painting,17%
same,mice died (or euthanized due to sCRS),MDA-MB-231 [1]; 4-hour pre-painting,33%
same,mice died,"MDA-MB-231 [1]; 4-hour pre-painting, Week 3",33%
same,mice died,"MDA-MB-231 [1]; 4-hour pre-painting, week 4",17%
same,mice died (or euthanized due to sCRS),MDA-MB-231 [1]; 24-hour pre-painting,17%
same,mice survived over 5 weeks,"MDA-MB-231 [1]; NSG, mouse, in vivo",83%
same,tumor outcome of surviving mice,MDA-MB-231 [1]; both pre-painting groups,tumor free
same,tumor response,"KB; 500 nmol/kg weekly, 5 million FITC-CAR-T",stable disease
same,fraction of mice with sCRS,KB; day 23,⅔
same,fraction of mice with sCRS,KB; day 37,⅓
same,tumor volume,"HOS-FRα; 500 nmol/kg SIW, 10.5 million CAR T-cells",started to shrink on Days 28 and 33
same,CRS,HOS-FRα; once tumors reached >200 mm^3,CRS was severe
same,anti-tumor activity,OV90,EC17 dependent anti-tumor activity
same,anti-tumor activity,MDA-MB-231 [2],eliminate MDA-MB-231 tumors
same,tumor response,HEK293-FRa,progressive disease
same,binding to CAR-expressing T cells,[3],able to bind to the CAR-expressing T cells
same,binding to CAR-expressing T cells,[3]; listed as fluorescein-folate,competitively block FITC-Alexa 647 binding
